Results: patent publication US12187716B2, “TYK2 kinase inhibitors” (SAREUM LIMITED, priority 2018, dated 2025)

How the values were obtained:
[1] = biological target: JAK3 (Homo sapiens, UniProt P52333); experiment: JAK3 kinase inhibition assay (33P-ATP filter binding, Reaction Biology)
[2] = system: pSTAT3 in HT29 cells; experiment: pSTAT3 inhibition in response to IL-22 stimulation in serum starved HT29 cells; type: cell-based
Experimental: HT29 cells were serum starved overnight before the four test compounds were diluted to generate a 9-point semi-log dose dilution with a top concentration of 10 μM, plus vehicle control. HT29 cells were incubated with the test compounds for 20 min at 37° C. HT29 cells were incubated for a further 15 min with 10 ng/ml human IL-22 before cells were fixed with 4% PFA for 10 min, and 90% methanol for 30 min before being labelled with a phospho-STAT3Y705 antibody (CST #9145). Cells were rinsed three times using 0.5% BSA/PBS solution before being incubated with Alexa-488 anti-rabbit secondary antibodies.
Mean fluorescence intensity of phospho-STAT3 in single cells was analysed by flow cytometry using an Intellicyt iQue instrument and FlowJo software. The IC50 was determined using a four-parameter analysis following removal of background signal and normalisation to the DMSO control.

[3] = biological target: TYK2 (Homo sapiens, UniProt P29597); experiment: TYK2 kinase inhibition assay (33P-ATP filter binding, Reaction Biology)
[4] = biological target: JAK1 (Homo sapiens, UniProt P23458); experiment: JAK1 kinase inhibition assay (33P-ATP filter binding, Reaction Biology)
JAK1, sequence (P23458 866-1154): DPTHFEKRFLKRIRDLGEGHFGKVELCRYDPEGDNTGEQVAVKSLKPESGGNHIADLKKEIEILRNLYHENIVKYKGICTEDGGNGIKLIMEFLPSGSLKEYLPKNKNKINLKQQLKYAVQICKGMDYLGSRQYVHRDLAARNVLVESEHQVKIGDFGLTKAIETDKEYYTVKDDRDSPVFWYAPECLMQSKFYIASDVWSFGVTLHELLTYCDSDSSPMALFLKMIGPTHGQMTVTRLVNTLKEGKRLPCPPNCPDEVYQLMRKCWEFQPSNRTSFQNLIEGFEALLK

JAK3, sequence (P52333 781-1124): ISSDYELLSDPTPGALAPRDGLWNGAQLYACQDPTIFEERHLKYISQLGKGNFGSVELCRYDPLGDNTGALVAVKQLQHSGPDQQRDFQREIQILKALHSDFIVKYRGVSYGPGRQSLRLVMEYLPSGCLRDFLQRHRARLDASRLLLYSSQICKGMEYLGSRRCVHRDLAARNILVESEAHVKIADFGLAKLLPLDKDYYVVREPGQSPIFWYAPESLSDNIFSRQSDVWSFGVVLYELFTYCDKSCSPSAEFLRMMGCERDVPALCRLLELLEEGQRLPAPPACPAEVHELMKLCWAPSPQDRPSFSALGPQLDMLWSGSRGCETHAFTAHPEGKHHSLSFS
TYK2, sequence (P29597 833-1187): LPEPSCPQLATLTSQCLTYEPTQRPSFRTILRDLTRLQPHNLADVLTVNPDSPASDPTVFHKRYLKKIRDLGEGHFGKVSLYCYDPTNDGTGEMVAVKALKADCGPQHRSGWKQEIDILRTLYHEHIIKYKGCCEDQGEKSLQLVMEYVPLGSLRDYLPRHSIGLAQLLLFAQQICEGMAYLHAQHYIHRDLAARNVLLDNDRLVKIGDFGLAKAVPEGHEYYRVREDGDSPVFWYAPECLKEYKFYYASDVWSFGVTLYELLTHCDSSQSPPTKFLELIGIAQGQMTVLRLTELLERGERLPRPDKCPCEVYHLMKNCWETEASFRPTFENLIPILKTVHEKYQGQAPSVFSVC

`NC(=O)c1nc(-c2c(F)cccc2Cl)oc1Nc1ccc(C(=O)N2CCOCC2)cc1` [A, 2-(2-chloro-6-fluoro-phenyl)-5-[4-(morpholine-4-carbonyl)-phenylamino]-oxazole-4-carboxylic acid amide, reference compound] was tested, and the IC50 [1] was 290 nM, the inhibition at 10 µM ([2]; HT-29, HT29 cells, 10 ng/ml human IL-22, 10 μM compound) was 96.9% and the IC50 ([2]; Homo sapiens, HT-29, HT29 cells, 10 ng/ml human IL-22) was 170 nM. For the same molecule, the IC50 [3] was 10 nM and the IC50 [4] was 49 nM.
